{
  "source": "patent EP4455142A1",
  "about": "“NOVEL INHIBITOR OF QPCTL AND/OR QC” (Scenic Immunology B.V., priority 2023, dated 2024)",
  "key": {"[1]": {"experiment": "Kinetic solubility", "assay_type": "physicochemical", "details": "aqueous buffer; 50 mM phosphate buffer (pH 7.4), 24 hours at room temperature", "description": "To assess the solubility of test compounds 10 µL of a 10 mM solution in DMSO was added to the lower chamber of a whatman miniuniprep (PTFE Filter Media with Polypropylene Housing) vial. 490 µL of 50 mM phosphate buffer (pH 7.4) was added to the lower chamber, the samples were vortexed for at least two minutes and then shaken on a shaker for 24 hours at room temperature at the speed of 880 rpm. The samples were then centrifuged for 20 minutes at 4000 rpm, compressed and the filtrates were injected into a HPLC-UV and LC-MS/MS system to calculate the concentration compared to the standard curve using a ACQUITY UPLC BEH C18 1.7 µm 2.1 * 50 mm column."}, "[2]": {"experiment": "CACO-2-based cell-permeation and efflux", "assay_type": "in vitro ADME", "details": "human, 2 µM compound, pH 7.40", "description": "CACO-2 (ATCC, Manassas, VA, USA) monolayers on polyethylene membranes in 96-well insert plates were incubated for 2 hours in 5% C02, 37°C with 2 µM compound tested bidirectionally in duplicate using HBSS with 10 mM HEPES at pH 7.40 ±0.05 as transport buffer. Final DMSO Concentrations were adjusted to less than 1%. All samples were mixed with acetonitrile containing internal standard and centrifuged at 3220 x g for 10 minutes. Subsequently, 100 µL supernatant solution was diluted with 100 µL distilled water for LC/MS/MS analysis. Lucifer yellow rejection assays were applied after the transport assay to ensure CACO-2 cell monolayer integrity.\nThe apparent permeability coefficient Papp (cm/s) was calculated using the equation: Papp = (dCr/dt) × Vr/(A×CO) [formula] where dCr/dt is the cumulative concentration of compound in the receiver chamber as a function of time (µM/s); Vr is the solution volume in the receiver chamber (0.075 mL on the apical side, 0.25 mL on the basolateral side); A is the surface area for the transport, i.e., 0.0804 cm^2 or the area of the monolayer; CO is the initial concentration in the donor chamber (µM)."}, "[3]": {"molecular_target": "T1, human isoQC (Homo sapiens, UniProt Q9NXS2)", "T1 construct": "The Golgi luminal, enzymatically active region of human isoQC (S53-L382; see, e.g., Huang et al., 2011); GST (with enterokinase site) (N, cleaved yes); made in house; host or cells: E. coli", "T1 sequence (Q9NXS2 53-382)": "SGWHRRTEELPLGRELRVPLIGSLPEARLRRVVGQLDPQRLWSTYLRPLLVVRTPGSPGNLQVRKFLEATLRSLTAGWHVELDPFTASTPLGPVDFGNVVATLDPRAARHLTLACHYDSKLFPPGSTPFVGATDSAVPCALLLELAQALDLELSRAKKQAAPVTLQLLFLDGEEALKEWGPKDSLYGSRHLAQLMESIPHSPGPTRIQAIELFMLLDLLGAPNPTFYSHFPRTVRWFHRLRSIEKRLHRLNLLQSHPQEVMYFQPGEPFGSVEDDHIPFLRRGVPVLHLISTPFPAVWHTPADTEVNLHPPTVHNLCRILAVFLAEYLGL", "experiment": "Assay 1 - isoQC potency, fluorescent enzymatic assay (H-Gln-AMC, coupled pGAPase detection)", "assay_type": "biochemical", "details": "recombinant isoQC, 1 hour at 37°C", "from_the_text": "The Golgi luminal, enzymatically active region of human isoQC (S53-L382; see, e.g., Huang et al., 2011) was obtained by expression in E. coli of an N-terminally GST Enterokinase and C-terminally 6xHis tagged construct in the pET41(+) vector and subsequent purification using Ni-NTA IMAC. Enterokinase digestion ensued, followed by another Ni-NTA IMAC purification, Superdex75 based size exclusion and finally a spin concentration using a 10 kDa molecular weight cutoff. The final protein is formulated in 50 mM Tris-HCl, 150 mM NaCl, 50% Glycerol, pH 7.8.\n(§1) Pyroglutamylation was measured by conversion of glutamine-4-amino-7-methylcoumarine (H-Gln-AMC, Bachem) to pyroglutamyl-AMC, which is subsequently a specific substrate for pyroglutamylaminopeptidase (pGAPase, Qiagen), releasing free AMC which can be fluorescently detected. For a typical inhibition assay, 7.5 µL aliquots of threefold dilutions of test compound in 50mM Tris pH8 buffer were plated in 384-well plates. 15 µL 20 µM hGln-AMC (diluted from a 40 mM stock dissolved in 25 mM HEPES using 50 mM Tris-HCl 25 pH 8.0) was added to each well. Finally, 7.5 µL, 3 ng/µL recombinant isoQC enzyme was added and the reaction mixture was incubated for 1 hour at 37°C. A 5 minute incubation at 98°C was then performed to denature the isoQC enzyme and stop the reaction.\nTo detect the amount of pyroglutamyl-AMC formed, a 0.125 U/mL pGAPase enzyme diluted in 50 mM Tris-HCl pH 8.0 containing 10 mM dithiothreitol (DTT) solution was prepared. 25 µL of the pyroglutamylation reaction mixture was transferred into an empty plate and to that, 25 µL of the pGAPase enzyme solution was added. Plates were then incubated for 25 minutes at room temperature before fluorescence readings were taken on an Envision2 plate reader with excitation set at 380 nm and emission at 450 nm. DMSO concentrations during the assay never exceeded 1% and activities were compared to controls containing only the same amount of DMSO and no test compound. Controls were taken along containing pyroglutamylated-AMC (Bachem, dissolved at 10 mM in DMSO) instead of H-Gln-AMC to control for pGAPase inhibition.\n(§2) IC50 values are calculated using non-linear regression analysis with GraphPad Prism software."}, "[4]": {"experiment": "Microsomal stability, mouse (MLM)", "assay_type": "in vitro ADME, CD-1 mouse", "details": "mouse liver microsomes, 0.5 mg protein/mL, 1 µM test compound", "description": "(§3) In order to assess metabolic stability of test compounds, commercially acquired CD-1 mouse liver microsome preparations were incubated in 100 µL at a final concentration of 0.5 mg protein/mL, 1 µM test compound, 0.99% methanol and 0.01% DMSO, after a 10 minute pre-incubation at 37°C and addition of 0.1 volumes 10 U/mL NADPH in 10 mM MgCl2. Reactions were stopped by addition of 300 µL cold acetonitrile containing internal standards at t = 0, 5, 10, 20, 30, and 60 minutes. Samples were submitted to LC-MS/MS analysis subsequently and the slope of linear regression of time versus In(% Remaining concentration) was derived to calculate t½ as t½= In(2) /(-Slope). Then Clint(mic) and Clint(liver) were calculated as follows: CLint(mk) = (0.693)/(In vitro T1/2) · (1)/(mg/mL microsomal protein in reaction system) [formula] CLint(liver) = CLint(mic) · (mg microsomes)/(g liver) · (g liver)/(kg body weight) [formula]\nWhere 45 mg microsomal protein/g liver and 88 g liver/kg mouse bodyweight were used as standardized parameters for mouse microsomes."}, "[5]": {"experiment": "Microsomal stability, human (HLM)", "assay_type": "in vitro ADME", "details": "liver microsomes, 0.5 mg protein/mL, 1 µM test compound", "description": "as §3\n(§4) The same procedure was performed for human microsomes, SD rat microsomes and (beagle) dog microsomes.\nWhere 45 mg microsomal protein/g liver and 20 g liver/kg human bodyweight were used as standardized parameters for human microsomes."}, "[6]": {"experiment": "Microsomal stability, dog (DLM)", "assay_type": "in vitro ADME", "details": "liver microsomes; (beagle) dog microsomes, 0.5 mg protein/mL, 1 µM test compound", "description": "as §3, §4\nWhere 45 mg microsomal protein/g liver and 32 g liver/kg dog bodyweight were used as standardized parameters for […]."}, "[7]": {"molecular_target": "T2, recombinant QC enzyme (Homo sapiens, UniProt Q16769)", "T2 construct": "bacterial expression of residues 33-361 of uniprot ID Q16769, fused to a His tag; His tag (cleaved yes); made in house", "T2 sequence (Q16769 33-361)": "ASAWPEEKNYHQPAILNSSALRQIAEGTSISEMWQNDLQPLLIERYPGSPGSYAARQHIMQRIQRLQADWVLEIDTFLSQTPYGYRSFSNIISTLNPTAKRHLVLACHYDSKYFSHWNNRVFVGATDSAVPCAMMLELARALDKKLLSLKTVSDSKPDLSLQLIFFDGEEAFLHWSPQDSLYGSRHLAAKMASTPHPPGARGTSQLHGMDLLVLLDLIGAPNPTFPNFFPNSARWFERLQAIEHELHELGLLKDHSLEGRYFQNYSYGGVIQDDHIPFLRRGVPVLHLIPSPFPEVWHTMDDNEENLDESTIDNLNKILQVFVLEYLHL", "experiment": "Assay 2 - QC potency, fluorescent enzymatic assay (H-Gln-AMC, coupled pGAPase detection)", "assay_type": "biochemical", "details": "1 hour at 37°C", "description": "After scale-up, expression and lysis, protein was purified by Ni-NTA IMAC, dialysed in the presence of Factor Xa, further purified by Ni-NTA reverse IMAC and finally filtrated for size on a Superdex 200 16/60 column. Final protein was concentrated using a spin concentrator at 10 kDa molecular weight cut-off and formulated in 150 mM NaCl, 50 mM Tris-HCl, 50% Glycerol, pH 8.0.\nas §1, with “50 mM” for “50mM”, “h-Gln-AMC” for “hGln-AMC”, “Tris-HCl” for “Tris-HCl 25”, “QC” for “isoQC”\n25 µL of the pyroglutamylation reaction mixture was transferred into an empty plate and to that, 25 µL of the pGAPase enzyme solution was added. Plates were then incubated for 25 minutes at room temperature before fluorescence readings were taken on an Envision2 plate reader with excitation set at 380 nm and emission at 450 nm.\nControls were taken along containing pyroglutamylated-AMC (Bachem, dissolved at 10 mM in DMSO) instead of H-Gln-AMC to control for pGAPase inhibition.\nas §2"}, "[8]": {"experiment": "Microsomal stability, rat (RLM)", "assay_type": "in vitro ADME", "details": "liver microsomes; SD rat microsomes, 0.5 mg protein/mL, 1 µM test compound", "description": "as §3, §4\nWhere 45 mg microsomal protein/g liver and 40 g liver/kg rat bodyweight were used as standardized parameters for rat microsomes."}},
  "data": [
    {"molecule": "O=C1OCC(c2cc(F)cc(C(F)(F)F)c2)N1c1ccc2[nH]cnc2c1", "note": "(single isomer, unassigned) [(17)-ent2]", "values": [
      {"measurement": "solubility at 24 h", "setting": "[1]", "value": 39, "unit": "µM"},
      {"measurement": "Papp A→B at 2 h, 2 µM", "setting": "[2]; Caco-2, pH 7.4, A2B", "value": 1.5, "unit": "×10⁻⁶ cm/s"},
      {"measurement": "Papp B→A at 2 h, 2 µM", "setting": "[2]; Caco-2, pH 7.4, B2A", "value": 36.8, "unit": "×10⁻⁶ cm/s"},
      {"measurement": "IC50", "setting": "[3]", "value": 632, "unit": "nM"},
      {"measurement": "CLint scaled at 1 µM", "setting": "[4]", "value": 182, "unit": "mL/min/kg"},
      {"measurement": "CLint scaled at 1 µM", "setting": "[5]", "value": "< 8.6", "unit": "mL/min/kg"},
      {"measurement": "CLint scaled at 1 µM", "setting": "[6]", "value": "< 13.8", "unit": "mL/min/kg"},
      {"measurement": "IC50", "setting": "[7]", "value": 1080, "unit": "nM"},
      {"measurement": "CLint scaled at 1 µM", "setting": "[8]", "value": 49, "unit": "mL/min/kg"}
    ]}
  ]
}
